Laboratory results taken from patent US20100063139A1, “USE IN A COSMETIC COMPOSITION OF LIPOCHROMAN-6 TO ENHANCE THE RADIANCE OF THE COMPLEXION OF THE SKIN, ESPECIALLY THE SKIN OF THE FACE” (LVMH RECHERCHE, priority 2008, published 2010).
Several values for one entry are separate records, joined by “and”; a condition that tells them apart may be missing. Equal entries are not always repeated.

Columns and labels:
Format in all cases: cell-based
gene MsrA (msra) = assay: Quantitative RT-PCR (RT-Q-PCR) of msra gene expression in normal human epidermal keratinocytes; conditions: 24 h, NHK; for % Control (msra/G3PDH): control = 100; for Mb Cycles (msra): triplicate PCR cycle numbers
Description: (§1) The effect of lipochroman-6 on the basal expression of genes coding for the proteins MsrA and MsrB is evaluated by the method of quantitative RT-PCR (real-time PCR; RT-Q-PCR).
(§2) The model selected is that of normal human epidermal keratinocytes (NHK) cultivated in vitro.
(§3) Type: normal human epidermal keratinocytes (NHK)
(§4) Test medium: SFM medium without EGF and without PE (SFM-PE-EGF)
(§5) Lipochroman-6: stock solution at 10 mg/ml in ethanol, diluted in test medium at concentrations of 0.01 mg/ml and 0.005 mg/ml.
(§6) The keratinocytes are seeded and pre-cultured for 24 hours in complete SFM culture medium (24-well plates) and then placed in SFM-PE-EGF medium.
(§7) At confluence, the cells are treated or not (control) with the test product and are cultured for 24 h at 37° C. and 5% CO2. Each treatment is carried out in triplicate. The culture supernatants are then harvested and the cell layers are rinsed with PBS solution (Invitrogen), and then 300 μl of tri-reagent (Sigma) are added. The plates are subsequently frozen at −80° C.
(§8) The expression of the genes msra and msrb is evaluated by RT-Q-PCR on the basis of the messenger RNA (mRNA) extracted from the cell layers of each treatment. For each treatment, the three samples are combined into one prior to the extraction of the RNA.
(§9) The main steps of the protocol are as follows: • Extraction of the total RNA using tri-reagent, according to the protocol of the supplier. • Removal of traces of potentially contaminating DNA by treatment with the DNA-free system (Ambion). • Implementation of the reverse transcription reaction in the presence of the primer oligo(dT) and the enzyme Superscript II (Gibco).
(§10) The PCR reactions are carried out with the aid of the following primers: […]
(§11) The PCR (polymerase chain reaction) reactions are carried out by quantitative PCR with the Light Cycler system (Roche Molecular Systems Inc.) according to the procedures recommended by the supplier. To perform correctly, this analytical system requires prior development of the conditions of analysis of the different primers. This system is formed of two main components: an optimized thermocycler, which allows extremely rapid heat transfers, and a fluorimeter, which continuously measures the fluorescence intensity incorporated in the DNA (detection at 521 nm). The reaction mixture (10 μl final) for each sample is as follows: • 2.5 μl of cDNA diluted to 1/10th • primers of the different markers used • reaction mixture (Roche) containing the enzyme taq DNA polymerase, the marker SYBR Green I (a fluorophore which is integrated into the double-stranded DNA in the course of the elongation step) and MgCl2.
(§12) The incorporation of fluorescence into the amplified DNA is measured continuously during the PCR cycles. […] The number of cycles is determined on the basis of the “exit” points of the fluorescence curves. For a given marker analysed, the later the exit of a sample (high number of cycles) the lower the initial number of copies of the mRNA. The relative expression (RE) value is expressed in arbitrary units (AU) in accordance with the following formula: (½^number of cycles)×10^6.

gene MsrB (msrb) = assay: Quantitative RT-PCR (RT-Q-PCR) of msrb gene expression in normal human epidermal keratinocytes; conditions: 24 h, NHK; for % Control (msrb/G3PDH): control = 100; for Mb Cycles (msrb): triplicate PCR cycle numbers
Description: as §1, §2, §3, §4, §5, §6, §7, §8, §9, §10, §11, §12

[1] = tested on: methionine sulphoxide reductase (Msr); assay: Msr activity in protein extracts of treated human keratinocytes (N-acetyl-(3H)-methionine-R,S sulphoxide substrate); conditions: dose of 0.05%; human keratinocytes in culture, 24 h treatment
Description: The keratinocytes are obtained from grafts of skin originating from abdomens of healthy donors aged 47 years.
Lipochroman-6 powder (supplier: Lipotec) is first diluted in 20 μl of absolute ethanol. Then a stock solution at 10 mg/ml in the K-SFM-S medium is prepared.
An intermediate solution at 1 mg/ml (dilution 20 μl in 200 μl of K-SFM-S medium) is prepared from the lipochroman-6 stock solution.
The dilutions are carried out in the K-SFM-S medium on the basis of the intermediate solution at 1 mg/ml.
The medium is drawn off from the cell flasks (passage P3) and replaced with the medium containing the different dilutions of actives. After 24 hours of treatment, the cells are washed with PBS buffer and then treated with trypsin. The cells are finally counted with a NucleoCounter from Chemometec (Bioblock). […]
The Msr activity is measured on the basis of the protein extracts by using the substrate N-acetyl-(^3H)-methionine-(R, S) sulphoxide in a reaction mixture of 30 μl containing Tris-HCl pH 7.5, 25 mM, MgCl2 10 mM, DTT 15 mM, at 37° C. […]
The required quantity of proteins is withdrawn and made up with water to a reaction volume of 20.8 μl in a 2 ml Eppendorf tube stored in ice. […]
Following centrifugation at 15 000 g for 5 minutes at ambient temperature, 1 ml of the upper, organic phase is withdrawn and is counted in a scintillation vial and admixed with 2 ml of Sigma Fluor scintillant. […]

[2] = tested on: normal human keratinocytes (NHK); assay: Immunostaining (DNPH/anti-DNP) of oxidized proteins in normal human keratinocytes, confocal image analysis; conditions: for DNP marking/No. of cells / DNP marking/surface area measured / Surface area DNP marking: 48 h; for Proportion of oxidized proteins/cells, KHN 0002: donor KHN 0002; for Proportion of oxidized proteins/cells, KHN 9726: donor KHN 9726; for Proportion of oxidized proteins/cells, Mean: mean of two donors
Description: Normal human keratinocytes (NHK) isolated from harvesting of human skin carried out on two different donors (labelled KHN002 and KHN 9726 hereinafter) are cultured in T75 flasks in complete KSFM medium (KSFMc) (Invitrogen GIBCO) at 37° C. and 5% CO2 and are seeded at 20 000 cells per well in 8-well Lab-Tek II culture systems (Nalge Nunc International).
After 48 h of culture, the cells are treated with the treatment solutions (see below).
A 0.004% weight/volume lipochroman-6 solution is prepared (solution A).
This is done by dissolving 20 mg of lipochroman-6 powder (supplier: Lipotec) in 2 ml of ethanol (solution at 10 mg/ml). This solution is diluted (40 μl of the stock solution in 10 ml of KSFm medium) to give solution A.
The treatment solutions are prepared by diluting solution A prepared above in the KSFMc medium, to give the correct percentage of lipochroman-6.
Treatments carried out on 3 wells per cell type: • control: KSFMc • solvent control: 0.1% solution of ethanol in KSFMc medium • 0.001% lipochroman • 0.002% lipochroman
After 48 hours of treatment, the KSFMc is drawn off. The cells are rinsed with phosphate buffer (PBS) (PBS tablets, Invitrogen GIBCO), then fixed with formalin (formalin solution 10% neutral buffered, Sigma) for 10 minutes at ambient temperature. After rinsing with PBS, the culture chambers are filled with 0.1% triton solution (Triton X-100, Sigma) for 10 minutes, then rinsed with PBS.
The subsequently disassembled culture chambers and the slides are immersed in a solution of 2,4-dinitrophenylhydrazine (300 mg of DNPH (Fluka)) in an ethanol/sulphuric acid (98.5 ml/1.5 ml) mixture for 30 minutes.
The dinitrophenyl (DNP) groups fixed to the oxidized proteins are recognized by a primary anti-DNP antibody.
For this purpose, in a first step, the slides are covered with a solution of primary antibody (monoclonal mouse anti-DNP antibody, Sigma), diluted to 1/500th in a 1% BSA/PBS solution, and are incubated for 60 minutes in an oven at ambient temperature and then rinsed with a 0.1% Tween-PBS solution (Tween20, Merck). In a second step, the cells are covered with a secondary antibody solution (Alexafluor 546 goat anti-mouse, Invitrogen) in a 1% BSA/PBS solution, and are incubated away from the light for 60 minutes. The slides are subsequently rinsed with PBS-Tween and then with PBS.
The photographs are made by confocal microscopy (Axioplan microscope from Zeiss and krypton-argon laser from BioRad) with the aid of the LaserSharp 2000 software (BioRad). For each condition, three photographs are made with the ×40 lens, according to the same acquisition parameters (gain, iris).
In practice, an excitation fluorescence at 546 nm is applied by the confocal laser to the cells. The fluorochrome Alexafluor 546, which represents the oxidized proteins, emits fluorescence at 573 nm, which is recovered by a specific filter and can be observed. The measured fluorescence is therefore directly proportional to the amount of oxidized proteins.
The photographs are analysed with the aid of the Leica QWin image analysis software. A program allows the DNPH staining to be quantified in order to evaluate the level of oxidized proteins and the number of cells.
The program detects the fluorescent staining of the oxidized proteins. A detection zone which is as representative as possible (number, size, cell density, intensity of marking) is delimited. The fluorescence of the oxidized proteins is measured in the delimited zone, and the cells in the same zone are numbered by counting of the cell nuclei (see FIGS. 2a, 2b, 2c, 2d and 2e).
The effect of lipochroman-6 on the oxidation of proteins is measured on the two types of normal human keratinocytes (NHK). This is done by estimating the surface area of staining of the oxidized proteins, the surface area of the measurement zone and the number of cells in the measurement surface area, using an image processing system.

## COc1cc2c(cc1O)CCC(C)(C)O2 [Lipochroman-6]
Gene MsrA (msra); 0.005 mg/ml
  Mb/G3PDH (msra/G3PDH): 4.14 × 10^−3
  RE*Mb (AU) (msra relative expression): 8.251 × 10^−3 AU
  % Control (msra/G3PDH): 116%
  Mb Cycles (msra): 26.84 and 26.91 and 26.81
Gene MsrA (msra); 0.01 mg/ml
  Mb/G3PDH (msra/G3PDH): 4.42 × 10^−3
  RE*Mb (AU) (msra relative expression): 8.66 × 10^−3 AU
  % Control (msra/G3PDH): 124%
  Mb Cycles (msra): 26.83 and 26.79 and 26.73
Gene MsrB (msrb); 0.005 mg/ml
  Mb/G3PDH (msrb/G3PDH): 1.76 × 10^−2
  RE*Mb (AU) (msrb relative expression): 3.516 × 10^−2 AU
  % Control (msrb/G3PDH): 127%
  Mb Cycles (msrb): 24.68 and 24.86 and 24.75
Gene MsrB (msrb); 0.01 mg/ml
  Mb/G3PDH (msrb/G3PDH): 2.05 × 10^−2
  RE*Mb (AU) (msrb relative expression): 4.018 × 10^−2 AU
  % Control (msrb/G3PDH): 148%
  Mb Cycles (msrb): 24.62 and 24.60 and 24.49
[1]
  Increase of Msr activity: 44%
[2]; 0.001% lipochroman
  DNP marking/No. of cells: 82.1 B
  DNP marking/surface area measured: 28.7% D
  Surface area DNP marking: 3776 C
[2]; 0.001% lipochroman-6, 48 h
  Proportion of oxidized proteins/cells, KHN 0002: 76.3
  Proportion of oxidized proteins/cells, KHN 9726: 88
  Proportion of oxidized proteins/cells, Mean: 82.1
[2]; 0.002% lipochroman
  DNP marking/No. of cells: 52.0 A
  DNP marking/surface area measured: 18.4% B
  Surface area DNP marking: 2415 B
[2]; 0.002% lipochroman-6, 48 h
  Proportion of oxidized proteins/cells, KHN 0002: 60.9
  Proportion of oxidized proteins/cells, KHN 9726: 43
  Proportion of oxidized proteins/cells, Mean: 52
